Results published in PubChem BioAssay AID1919000 (Molecular Pharmacology Branch, DTP, NCI, 2023).
Several values for one entry are separate records, joined by “and”; a condition that tells them apart may be missing. Equal entries are not always repeated.

Test system: 653999-131-R-J2-PDC complex spheroids, growth % test/control
Assay: Anticancer human tumor 653999-131-R-J2-PDC patient-derived lung adenocarcinoma cell line growth inhibition [AhR]
Conditions: for viability, T/C: stronger effect = lower value
In short: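 Complex tumor spheroids co-cultured with HUVEC and human MSC stroma; AhR antagonists tested in combination with standard-of-care and investigational agents. Top concentration at or near clinical Cmax (else 10 microM), half-log dilutions; growth expressed as percent test/control.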

[1] = curve of first compound, second compound 0.1 µM
[2] = curve of first compound, second compound 0.316 µM
[3] = curve of first compound, second compound 1 µM
[4] = curve of first compound, second compound 3.16 µM
[5] = curve of first compound, second compound 10 µM
[6] = second compound 0.1 µM, first compound 0.0316 µM
[7] = second compound 0.1 µM, first compound 0.1 µM
[8] = second compound 0.1 µM, first compound 0.316 µM
[9] = second compound 0.1 µM, first compound 1 µM
[10] = second compound 0.1 µM, first compound 3.16 µM
[11] = second compound 0.1 µM, first compound 10 µM
[12] = second compound 0.316 µM, first compound 0.0316 µM
[13] = second compound 0.316 µM, first compound 0.1 µM
[14] = second compound 0.316 µM, first compound 0.316 µM
[15] = second compound 0.316 µM, first compound 1 µM
[16] = second compound 0.316 µM, first compound 3.16 µM
[17] = second compound 0.316 µM, first compound 10 µM
[18] = second compound 1 µM, first compound 0.0316 µM
[19] = second compound 1 µM, first compound 0.1 µM
[20] = second compound 1 µM, first compound 0.316 µM
[21] = second compound 1 µM, first compound 1 µM
[22] = second compound 1 µM, first compound 3.16 µM
[23] = second compound 1 µM, first compound 10 µM
[24] = second compound 3.16 µM, first compound 0.0316 µM
[25] = second compound 3.16 µM, first compound 0.1 µM
[26] = second compound 3.16 µM, first compound 0.316 µM
[27] = second compound 3.16 µM, first compound 1 µM
[28] = second compound 3.16 µM, first compound 3.16 µM
[29] = second compound 3.16 µM, first compound 10 µM
[30] = second compound 10 µM, first compound 0.0316 µM
[31] = second compound 10 µM, first compound 0.1 µM
[32] = second compound 10 µM, first compound 0.316 µM
[33] = second compound 10 µM, first compound 1 µM
[34] = second compound 10 µM, first compound 3.16 µM
[35] = second compound 10 µM, first compound 10 µM
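Further: spheroids exposed to agents for seven days.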
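Wherever viability, T/C is given: 100% = DMSO vehicle control viability.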

IC50 [1] [nM]	IC50 [2] [nM]	IC50 [3] [nM]	IC50 [4] [nM]	IC50 [5] [nM]	SMILES	viability, T/C [6] [%]	viability, T/C [7] [%]	viability, T/C [8] [%]	viability, T/C [9] [%]	viability, T/C [12] [%]	viability, T/C [13] [%]	viability, T/C [14] [%]	viability, T/C [15] [%]	viability, T/C [18] [%]	viability, T/C [19] [%]	viability, T/C [20] [%]	viability, T/C [21] [%]	viability, T/C [24] [%]	viability, T/C [25] [%]	viability, T/C [26] [%]	also measured
532	371	940	454	2960	Nc1ccn(C2OC(CO)C(O)C2(F)F)c(=O)n1 (stereo not drawn) + Cc1ccccc1N=Nc1ccc(NC(=O)c2ccnn2C)c(C)c1	64.2	65	49.3	44.9	70.6	60.9	52.8	39.8	69.2	66.4	60.5	44.4	72.5	62.4	51.5	viability, T/C [10]: 42.9%; viability, T/C [11]: 34.2%; viability, T/C [16]: 43.5%; viability, T/C [17]: 36.8%; viability, T/C [22]: 43.5%; viability, T/C [23]: 36%; viability, T/C [27]: 44.9%; viability, T/C [28]: 42.1%; viability, T/C [29]: 38.7%; viability, T/C [30]: 66.8%; viability, T/C [31]: 65.5%; viability, T/C [32]: 65.2%; viability, T/C [33]: 50.3%; viability, T/C [34]: 46.1%; viability, T/C [35]: 48.5%
> 1000	> 1000	> 1000	> 1000	> 1000	Nc1ncn(C2CC(O)C(CO)O2)c(=O)n1 (stereo not drawn) + Cc1ccccc1N=Nc1ccc(NC(=O)c2ccnn2C)c(C)c1	95.5	87.5	79.9	76.9	80.8	83.2	81.1	71.7	88	93.3	78.9	78.1	88	77.8	84.7	viability, T/C (second compound 0.1 µM, first compound 0.00316 µM): 97.5%; viability, T/C (second compound 0.1 µM, first compound 0.01 µM): 99.3%; viability, T/C (second compound 0.316 µM, first compound 0.00316 µM): 100%; viability, T/C (second compound 0.316 µM, first compound 0.01 µM): 93.8%; viability, T/C (second compound 1 µM, first compound 0.00316 µM): 87.5%; viability, T/C (second compound 1 µM, first compound 0.01 µM): 94.6%; viability, T/C (second compound 3.16 µM, first compound 0.00316 µM): 88.6%; viability, T/C (second compound 3.16 µM, first compound 0.01 µM): 92.9%; viability, T/C [27]: 72.7%; viability, T/C (second compound 10 µM, first compound 0.00316 µM): 84.3%; viability, T/C (second compound 10 µM, first compound 0.01 µM): 78.7%; viability, T/C [30]: 82.7%; viability, T/C [31]: 78.6%; viability, T/C [32]: 77.5%; viability, T/C [33]: 70.8%

More lines, now with the values behind:

SMILES	IC50 [1] [nM]	IC50 [2] [nM]	IC50 [3] [nM]	IC50 [4] [nM]	IC50 [5] [nM]	viability, T/C [6] [%]	viability, T/C [7] [%]	viability, T/C [8] [%]	viability, T/C [9] [%]	viability, T/C [12] [%]	viability, T/C [13] [%]	viability, T/C [14] [%]	viability, T/C [15] [%]	viability, T/C [18] [%]	viability, T/C [19] [%]	viability, T/C [20] [%]	viability, T/C [21] [%]	viability, T/C [24] [%]	viability, T/C [25] [%]	viability, T/C [26] [%]	also measured
Nc1ncn(C2CC(O)C(CO)S2)c(=O)n1 (stereo not drawn)	–	–	–	–	–	–	–	–	–	–	–	–	–	–	–	–	–	–	–	–	viability, T/C (compound 0.000949 µM): 101% and 99.4% and 103%; viability, T/C (compound 0.003 µM): 96.3% and 106% and 112%; viability, T/C (compound 0.00949 µM): 98.4% and 110% and 100%; viability, T/C (compound 0.03 µM): 94.8% and 91% and 102%; viability, T/C (compound 0.0949 µM): 94.3% and 101% and 104%; viability, T/C (compound 0.3 µM): 86.8% and 100% and 89%; IC50 (curve of compound): > 300 nM
CC1COCCN1c1cc(C2(S(C)(=N)=O)CC2)nc(-c2ccnc3[nH]ccc23)n1 (stereo not drawn) + Cc1ccccc1N=Nc1ccc(NC(=O)c2ccnn2C)c(C)c1	8830	7290	8180	7120	6750	110	90.1	110	83.5	98.3	102	106	94.5	93.4	95.3	94.5	84	98	86	92.8	viability, T/C [10]: 71.2%; viability, T/C [11]: 47.3%; viability, T/C [16]: 63%; viability, T/C [17]: 45.1%; viability, T/C [22]: 65.9%; viability, T/C [23]: 46.6%; viability, T/C [27]: 80.8%; viability, T/C [28]: 70.1%; viability, T/C [29]: 41.6%; viability, T/C [30]: 94.3%; viability, T/C [31]: 83%; viability, T/C [32]: 80.8%; viability, T/C [33]: 71.2%; viability, T/C [34]: 63.3%; viability, T/C [35]: 42.8%
Nc1ccn(C2OC(CO)C(O)C2(F)F)c(=O)n1 (stereo not drawn)	–	–	–	–	–	–	–	–	–	–	–	–	–	–	–	–	–	–	–	–	viability, T/C (compound 0.0316 µM): 69.1% and 74.2% and 70.3%; viability, T/C (compound 0.1 µM): 63.2% and 70.2% and 62.9%; viability, T/C (compound 0.316 µM): 50.8% and 61.3% and 51.9%; viability, T/C (compound 1 µM): 41.5% and 56.2% and 43.5%; viability, T/C (compound 3.16 µM): 37.6% and 50.8% and 41.3%; viability, T/C (compound 10 µM): 32.7% and 46.7% and 36.1%
CC1(C)CCC(CN2CCN(c3ccc(C(=O)NS(=O)(=O)c4ccc(NCC5CCOCC5)c([N+](=O)[O-])c4)c(Oc4cnc5[nH]ccc5c4)c3)CC2)=C(c2ccc(Cl)cc2)C1 + Cc1ccccc1N=Nc1ccc(NC(=O)c2ccnn2C)c(C)c1	> 10000	> 10000	> 10000	> 10000	> 10000	100	99.1	103	95.1	88.8	90.6	97.7	86	99	93.1	89	99.4	99.5	90.2	94.3	viability, T/C [10]: 97.7%; viability, T/C [11]: 68.7%; viability, T/C [16]: 92.1%; viability, T/C [17]: 64.7%; viability, T/C [22]: 91.7%; viability, T/C [23]: 73.8%; viability, T/C [27]: 90%; viability, T/C [28]: 85.6%; viability, T/C [29]: 80.8%; viability, T/C [30]: 84%; viability, T/C [31]: 94.7%; viability, T/C [32]: 83.9%; viability, T/C [33]: 88.9%; viability, T/C [34]: 81%; viability, T/C [35]: 80.5%
